The values that follow are results of earlier work, collected in patent publication US11730747B2, “Drink product and use thereof” (HYGIA PHARMACEUTICALS, LLC, priority 2013, dated 2023).

One data set concerns JB6 cells. The settings on record: IP6 0.5-2 mM, three-dimensional growth in soft agar.
A further data set concerns PC-3. The settings on record: PC-3 cells.
The test system of a further data set is large intestinal cancer. The settings on record: rats; treatment begun 5 months after carcinogenic induction with azoxymethane.
Data set [1] has as its system human colon cancer cell lines.
The subject of the next data set is PI3K. Conditions: lung adenocarcinoma cell line.
The test system of a further data set is bronchial dysplasia. Conditions: smokers.
Another data set concerns pulmonary adenomas. The settings on record: diet containing 3% myo-inositol, fed beginning 1 week after exposure to benzo[a]pyrene.

On to `O=P(O)(O)O[C@H]1[C@H](OP(=O)(O)O)[C@@H](OP(=O)(O)O)[C@H](OP(=O)(O)O)[C@@H](OP(=O)(O)O)[C@H]1OP(=O)(O)O` [IP6, inositol-1,2,3,4,5,6-hexakisphosphate], for which the “inhibition of EGF or TPA-induced cell transformation” value in the data set with JB6 cells was “dose-dependent inhibition”. In the data set with PC-3, the “levels of integrin linked kinase 1 (ILK1) and cyclin D1” value is recorded as “strong decrease”; the “levels of phosphorylated AKT and GSK3α/β” value is “reduced levels”; the “phosphorylation levels of the p85 subunit of PI3K at Tyr458 and phosphoinositide-dependent kinase-1 at Ser241” value is recorded as “reduced phosphorylation levels”. In addition, the large intestinal cancers result in the data set with large intestinal cancer is “significantly (p=0.02) reducing”. For the same compound, the “growth of human colon cancer cell lines in vitro” value in data set [1] is recorded as “inhibits growth”.
On to `O[C@H]1[C@H](O)[C@@H](O)[C@H](O)[C@@H](O)[C@H]1O` [myoinositol], for which the PI3K activity entry in the data set on PI3K is given as “dose-dependent decreases”. The EC50 in the data set with PI3K (read-out: median effective concentration (ECs) for PI3K inhibition) was 73 nM. Moreover, the “reduction in the systolic and diastolic blood pressures (average)” value with bronchial dysplasia (18 grams per day for 3 months) is 10 mm Hg. The “rate of regression of preexisting dysplastic lesions” value in the data set with bronchial dysplasia (18 grams per day for 3 months, versus 48%, P=0.014) is given as 91%. For the same compound, in the data set with bronchial dysplasia (oral administration, dose escalation study for one month), the maximum tolerated dose is recorded as 18 grams per day. For the same compound, in the data set on bronchial dysplasia (oral myo-inositol), the side effects result is “mild and mainly gastrointestinal in nature”. Also, in the data set on pulmonary adenomas, the “reduction of the number of pulmonary adenomas” value is on record as 40%.
